How the values were obtained:
Assay type in all cases: cell-based, human
CD8+ T cells = experiment: Dextramer assay after 12-day peptide stimulation of PBMCs from HLA-A2 donors; settings: for dextramer positive CD8+ T cells: representative plot, day 12, peptide-stimulated PBMCs; for ability to elicit a specific CD8+ T cell response: summary statement; for increase in dextramer positive CD8+ T cells, peptide stimulated versus non stimulated: FIG. 4B, 12 different donors, day 12
[1] = tested on: T2 cells pulsed with HERV peptide; experiment: Cytotoxicity assay with T2 cells contact (intracellular IFN-γ of CD8+ T cells, FACS); settings: for IFN-γ production, percentage of CD8+ T cells (in median): FIG. 3B, 5 different donors, day 12, T2 cells pulsed with cognate peptide; for IFN-γ production, number of CD8+ T cells: FIG. 5B, 12 different donors, day 12
Procedure: On day 12 of PBMCs culture, T2 cells were washed in RPMI and resuspended into AIM-V medium (Thermo Fisher Scientific). T2 (SD Cell line) are a lymphoblast cell line deficient in the transporter associated with antigen processing (TAP) protein, and therefore cannot present endogenous peptides on the class I MHC, but can be used to monitor the CTL response to an exogenous antigen of interest in a non-competitive environment. T2 cells were first pulsed with HERV peptide by adding 10 μg/mL of corresponding peptide to 2M T2 cell for 2 hours at 37° C. PBMCs were pooled and counted and put in co-culture with corresponding T2 cells at a respective concentration of 1:5 into a new 96 U-well plate.
After 4 hours of incubation at 37° C., cells from co-culture were washed and pooled in V-well plate according to their staining condition in FACS buffer. Zombie NIR (Biolegend) was used at 1/400 to assess viability. Anti CD3 (PercP, Biolegend) and anti CD8 (FITC, Beckman coulter) antibodies were added 1/10 per condition and left for 25 minutes at 4° C. Cells were washed again and then fixed with fixation/permeabilization solution kit (Invitrogen, Carlasbad, USA) according to the manufacturer's instructions for 15 minutes at room temperature. Cells were washed two times in FACS buffer and kept at 4° c.
On day 13, cells were permeabilized with the permeabilization solution kit (Invitrogen) for 5 minutes at room temperature and anti IFN-γ (PE, Biolegend) antibody was added 1/20 to the solution for additional 25 minutes at 4° C. Cells were washed two times and resuspended in 350 μL of FACS buffer before FACS analysis. Analysis was performed on FACS Fortessa (BD) to explore the specific cytotoxicity and degranulation against T2 cells expressing HERV sequences.

[2] = tested on: T2 cells pulsed with the cognate peptide; experiment: ELISPOT for IFN-γ and Granzyme-β of peptide stimulated PBMCs co-cultured with T2 cells; settings: 2.10^5 cells per well, ratio 10:1 with T2 cells, revealed after 24h
Procedure: C. Representative histograms of the number of IFN-γ+ and Granzyme-I3+ spots after 12 days stimulation and following 24h of contact with T2 cells pulsed with the cognate peptide.
Peptide stimulated PBMCs after the 12-day culture were used to perform an ELISPOT assay for IFN-γ and Granzyme-β (FIG. 2C). 2.10^5 cells per well were put in co-culture with T2 cell specific for the peptide of interest in a ratio 10:1.

[3] = tested on: CD8+ T cells expanded from TNBC and ovarian tumor dilacerate; experiment: Dextramer staining of tumor infiltrated lymphocytes (TILs) from TNBC and ovarian cancer; settings: day 14, FIG. 7
Procedure: Tumors were dilacerated in small pieces and digested with collagenase IV and DNAse for 45 minutes. The cells obtained were resuspended in 5% human serum RPMI and distributed in 96 well (5.10^4 cells per well). Anti-CD3/CD28 microbeads (Miltenyi biotech) were added to the well in a ratio of 1:4 with cells in the presence of IL-2 (F.C. 100 IU/ml). TILs were cultured for 14 days by changing medium at day 5, 7, 9 and 12 and the number of the cells was adapted to have 0.5×10^6 cells/ml.
At day 14 a dextramer staining was performed (see dextramer assay paragraph) for the 7 peptides of interest (P1 to P7—SEQ ID NO: 1 to 7) and dextramer specific CD8+ T cells were identified by FACS analysis in TNBC (FIG. 7A) and ovarian cancer (FIG. 7B).

Row | Sequence | dextramer positive CD8+ T cells (CD8+ T cells; FIG. 2A) [%] | ability to elicit a specific CD8+ T cell response (CD8+ T cells) | dextramer positive CD8+ T cells (CD8+ T cells; FIG. 4A) [%] | increase in dextramer positive CD8+ T cells, peptide stimulated versus non stimulated (CD8+ T cells) | IFN-γ production, percentage of CD8+ T cells (in median) [1] [%] | IFN-γ production, number of CD8+ T cells [1] | specific IFN-γ and Granzyme-β spots [2] | frequency of specific CD8+ T cells in the tumors [3]
1 | AMIPKDWPL (HERV epitope 5) [P5] | 34.2 | able to elicit a specific CD8+ T cell response |  |  |  |  |  | 
2 | FLQFKTWWI (HERV epitope) [P1] |  | able to elicit a specific CD8+ T cell response | 0.63 | significant increase | ~10 | significant number | specific IFN-γ and Granzyme-β spots | more frequently represented
3 | KLIDCYTFL (epitope 3) [P3] |  | able to elicit a specific CD8+ T cell response |  | slightly | ~5 | significant number |  | 
4 | RLIPYDWEI (epitope 2) [P2] |  | able to elicit a specific CD8+ T cell response |  | slightly | ~5 | significant number |  | 
5 | SMDDQLNQL (HERV epitope 7) [P7] |  | able to elicit a specific CD8+ T cell response |  |  |  |  |  | 
6 | YAMSNLFSI (HERV epitope 6) [P6] |  | able to elicit a specific CD8+ T cell response |  | significant increase |  | moderate number | specific IFN-γ and Granzyme-β spots | more frequently represented
7 | YLSFIKILL (HERV epitope 4) [P4] |  | able to elicit a specific CD8+ T cell response |  | significant increase |  |  |  | 

Source: patent US20210330774A1, “HERV-K-DERIVED ANTIGENS AS SHARED TUMOR ANTIGENS FOR ANTI-CANCER VACCINE” (CENTRE LEON BERARD, priority 2018, published 2021)
